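GI50 marks 50% less growth. The concentration for full growth arrest is given as TGI.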
What was measured:
Experiment in all cases: DTP human tumour cell line panel, 384-well format
[1] = test system: DU-145 prostate
[2] = test system: HCT-15 colon
[3] = test system: HCC-2998 colon
[4] = test system: HOP-62 NSCLC
[5] = test system: A498 renal
[6] = test system: NCI/ADR-RES ovarian
[7] = test system: NCI-H322M lung
[8] = test system: EKVX NSCLC
[9] = test system: T-47D breast
[10] = test system: MCF7 breast
[11] = test system: RXF 393 renal
[12] = test system: SF-539 CNS
[13] = test system: OVCAR-4 ovarian
[14] = test system: MDA-MB-468 breast
[15] = test system: MALME-3M melanoma
[16] = test system: KM12 colon
[17] = test system: HCT-116 colon
[18] = test system: 786-0 renal
[19] = test system: LOX IMVI melanoma
[20] = test system: MOLT-4 leukemia
[21] = test system: MDA-MB-435 melanoma
[22] = test system: M14 melanoma
[23] = test system: IGROV1 ovarian
[24] = test system: SR leukemia
[25] = test system: UACC-62 melanoma
[26] = test system: SK-MEL-2 melanoma
[27] = test system: HT29 colon
[28] = test system: SN12C renal
[29] = test system: NCI-H460 NSCLC
[30] = test system: U251 glioblastoma
[31] = test system: TK-10 renal
[32] = test system: RPMI-8226 leukemia
[33] = test system: NCI-H522 lung
[34] = test system: BT-549 breast
[35] = test system: MDA-MB-231 breast
[36] = test system: SF-295 CNS
[37] = test system: SW-620 colon
[38] = test system: NCI-H226 lung
[39] = test system: UO-31 renal
[40] = test system: A549 NSCLC
[41] = test system: SF-268 CNS
[42] = test system: SK-MEL-28 melanoma
[43] = test system: SNB-19 CNS
[44] = test system: SK-OV-3 ovarian
[45] = test system: SK-MEL-5 melanoma
[46] = test system: HOP-92 NSCLC
[47] = test system: HS 578T breast
[48] = test system: CAKI-1 renal
[49] = test system: OVCAR-5 ovarian
[50] = test system: ACHN renal
[51] = test system: OVCAR-3 ovarian
[52] = test system: K-562 leukemia
[53] = test system: UACC-257 melanoma
[54] = test system: SNB-75 CNS
[55] = test system: OVCAR-8 ovarian
[56] = test system: HL-60(TB) leukemia
[57] = test system: NCI-H23 lung
[58] = test system: PC-3 prostate

Work on `Cc1cnc(-c2ccc(-c3ccc(NC(=O)Nc4cccc(C(F)(F)F)c4)cc3F)c3c2C(=O)NC3)[nH]1` yielded a GI50 [1] of 1270 nM, a TGI [1] of 7710 nM and a GI50 [2] of 926 nM. It also gave a TGI [2] of 4450 nM, a GI50 [3] of 2860 nM and a TGI [3] of 6700 nM. The GI50 [4] was 103 nM, the TGI [4] was 2030 nM and the GI50 [5] was 134 nM. The TGI [5] was 2210 nM, the GI50 [6] was 24000 nM and the TGI [6] was > 100000 nM. It also gave a GI50 [7] of 7120 nM, a TGI [7] of 26500 nM and a GI50 [8] of 91.7 nM. The TGI [8] was 4160 nM, the GI50 [9] was 2060 nM and the TGI [9] was 6710 nM. It also gave a GI50 [10] of 1080 nM, a TGI [10] of 4280 nM and a GI50 [11] of 923 nM. It also gave a TGI [11] of 3400 nM, a GI50 [12] of 60.9 nM and a TGI [12] of 1740 nM. The GI50 [13] was 96.5 nM, the TGI [13] was 2660 nM and the GI50 [14] was 28.2 nM. It also gave a TGI [14] of 75.4 nM, a GI50 [15] of 590 nM and a TGI [15] of 3820 nM. The GI50 [16] was < 10 nM, the TGI [16] was 1320 nM and the GI50 [17] was 248 nM. It also gave a TGI [17] of 2220 nM, a GI50 [18] of 1470 nM and a TGI [18] of 3730 nM. For the same compound, the GI50 [19] was 444 nM, the TGI [19] was 2370 nM and the GI50 [20] was < 10 nM. The TGI [20] was 11.7 nM, the GI50 [21] was 1270 nM and the TGI [21] was 10100 nM. It also gave a GI50 [22] of 126 nM, a TGI [22] of 3180 nM and a GI50 [23] of 1320 nM. For the same compound, the TGI [23] was 12400 nM, the GI50 [24] was < 10 nM and the TGI [24] was 14.4 nM. It also gave a GI50 [25] of 276 nM, a TGI [25] of 4730 nM and a GI50 [26] of 751 nM. It also gave a TGI [26] of 3240 nM, a GI50 [27] of 2180 nM and a TGI [27] of 13600 nM. It also gave a GI50 [28] of 75.5 nM, a TGI [28] of 2270 nM and a GI50 [29] of 38.1 nM. The TGI [29] was 1360 nM, the GI50 [30] was 1340 nM and the TGI [30] was 3170 nM. For the same compound, the GI50 [31] was 1050 nM, the TGI [31] was 4470 nM and the GI50 [32] was 31 nM. The TGI [32] was 1490 nM, the GI50 [33] was 34.5 nM and the TGI [33] was 1600 nM. For the same compound, the GI50 [34] was 130 nM, the TGI [34] was 2820 nM and the GI50 [35] was 1680 nM. For the same compound, the TGI [35] was 8560 nM, the GI50 [36] was 93.3 nM and the TGI [36] was 4690 nM. The GI50 [37] was 83.5 nM, the TGI [37] was 3640 nM and the GI50 [38] was 284 nM. It also gave a TGI [38] of 3150 nM, a GI50 [39] of 81.7 nM and a TGI [39] of 1460 nM. For the same compound, the GI50 [40] was 1050 nM, the TGI [40] was 6400 nM and the GI50 [41] was 261 nM. For the same compound, the TGI [41] was 3000 nM, the GI50 [42] was 1300 nM and the TGI [42] was 12200 nM. The GI50 [43] was 1700 nM, the TGI [43] was 4540 nM and the GI50 [44] was 926 nM. It also gave a TGI [44] of 4140 nM, a GI50 [45] of 1010 nM and a TGI [45] of 4350 nM. It also gave a GI50 [46] of 685 nM, a TGI [46] of 3310 nM and a GI50 [47] of 50.3 nM. The TGI [47] was 1530 nM, the GI50 [48] was 145 nM and the TGI [48] was 8830 nM. The GI50 [49] was 5690 nM, the TGI [49] was 22700 nM and the GI50 [50] was 681 nM. The TGI [50] was 10300 nM, the GI50 [51] was 75.5 nM and the TGI [51] was 2110 nM. It also gave a GI50 [52] of 51.6 nM, a TGI [52] of 1300 nM and a GI50 [53] of 1730 nM. The TGI [53] was 9250 nM, the GI50 [54] was 1130 nM and the TGI [54] was 2660 nM. It also gave a GI50 [55] of 1210 nM, a TGI [55] of 10500 nM and a GI50 [56] of 16.2 nM. For the same compound, the TGI [56] was 1050 nM, the GI50 [57] was 783 nM and the TGI [57] was 2390 nM. For the same compound, the GI50 [58] was 1960 nM and the TGI [58] was 5350 nM.

Reference: PubChem BioAssay (NCI)
